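Protocol summary: plate cells (96-well), add compound at 5 concentrations, incubate 48 h, interpolate endpoints linearly. The concentration for full growth arrest is given as TGI.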
Experiments:
Assay in all cases: NCI tumour cell line growth inhibition, 48 h
[1] = tested on: NCI-H522 lung
[2] = tested on: SK-MEL-28 melanoma
[3] = tested on: SK-MEL-5 melanoma
[4] = tested on: SK-OV-3 ovarian
[5] = tested on: MDA-MB-231 breast
[6] = tested on: OVCAR-5 ovarian
[7] = tested on: NCI-H226 lung
[8] = tested on: HCC-2998 colon
[9] = tested on: PC-3 prostate
[10] = tested on: HOP-92 NSCLC
[11] = tested on: SR leukemia
[12] = tested on: RXF 393 renal
[13] = tested on: UACC-62 melanoma
[14] = tested on: A549 NSCLC
[15] = tested on: EKVX NSCLC
[16] = tested on: SF-268 CNS
[17] = tested on: MOLT-4 leukemia
[18] = tested on: MCF7 breast
[19] = tested on: LOX IMVI melanoma
[20] = tested on: RPMI-8226 leukemia
[21] = tested on: HL-60(TB) leukemia
[22] = tested on: UO-31 renal
[23] = tested on: HOP-62 NSCLC
[24] = tested on: COLO 205 colon
[25] = tested on: HS 578T breast
[26] = tested on: SK-MEL-2 melanoma
[27] = tested on: OVCAR-8 ovarian
[28] = tested on: SF-539 CNS
[29] = tested on: UACC-257 melanoma
[30] = tested on: SN12C renal
[31] = tested on: KM12 colon
[32] = tested on: SW-620 colon
[33] = tested on: MDA-N
[34] = tested on: K-562 leukemia
[35] = tested on: NCI-H23 lung
[36] = tested on: SNB-19 CNS
[37] = tested on: HCT-15 colon
[38] = tested on: M14 melanoma
[39] = tested on: MALME-3M melanoma
[40] = tested on: MDA-MB-435
[41] = tested on: NCI-H460 lung
[42] = tested on: OVCAR-4 ovarian
[43] = tested on: HT29 colon
[44] = tested on: HCT-116 colon
[45] = tested on: BT-549 breast
[46] = tested on: IGROV1 ovarian
[47] = tested on: A498 renal
[48] = tested on: ACHN renal
[49] = tested on: 786-0 renal
[50] = tested on: CAKI-1 renal
[51] = tested on: U251 CNS
[52] = tested on: T-47D breast
[53] = tested on: OVCAR-3 ovarian
[54] = tested on: TK-10 renal
[55] = tested on: SF-295 CNS
[56] = tested on: CCRF-CEM leukemia
[57] = tested on: NCI/ADR-RES ovarian
[58] = tested on: SNB-75 CNS
[59] = tested on: DU-145 prostate

SMILES: Cc1cccc(N=Nc2ccc(O)c(CN(C)C)c2)c1
- TGI [1]: 24.1 µM
- TGI [2]: 36.9 µM
- TGI [3]: 27.5 µM
- TGI [4]: > 100 µM
- TGI [5]: > 100 µM
- TGI [6]: 98.4 µM
- TGI [7]: > 100 µM
- TGI [8]: 30.3 µM
- TGI [9]: > 100 µM
- TGI [10]: > 100 µM
- TGI [11]: > 100 µM
- TGI [12]: 73.7 µM
- TGI [13]: 30.4 µM
- TGI [14]: > 100 µM
- TGI [15]: 58.1 µM
- TGI [16]: > 100 µM
- TGI [17]: 91.6 µM
- TGI [18]: > 100 µM
- TGI [19]: 26.9 µM
- TGI [20]: > 100 µM
- TGI [21]: 54.2 µM
- TGI [22]: 51.5 µM
- TGI [23]: 28.9 µM
- TGI [24]: 28.6 µM
- TGI [25]: 44.9 µM
- TGI [26]: 47.6 µM
- TGI [27]: 85.1 µM
- TGI [28]: 41.6 µM
- TGI [29]: 36 µM
- TGI [30]: > 100 µM
- TGI [31]: 34.4 µM
- TGI [32]: 66.8 µM
- TGI [33]: 75.2 µM
- TGI [34]: 16.1 µM
- TGI [35]: > 100 µM
- TGI [36]: > 100 µM
- TGI [37]: 80.6 µM
- TGI [38]: 62.2 µM
- TGI [39]: 21.8 µM
- TGI [40]: 35.8 µM
- TGI [41]: 34.8 µM
- TGI [42]: > 100 µM
- TGI [43]: 53.8 µM
- TGI [44]: > 100 µM
- TGI [45]: > 100 µM
- TGI [46]: 65.9 µM
- TGI [47]: 38.8 µM
- TGI [48]: 34.9 µM
- TGI [49]: 92.5 µM
- TGI [50]: > 100 µM
- TGI [51]: > 100 µM
- TGI [52]: 57.5 µM
- TGI [53]: 52.7 µM
- TGI [54]: 72.4 µM
- TGI [55]: 86.5 µM
- TGI [56]: 4.69 µM
- TGI [57]: 72.6 µM
- TGI [58]: 94.5 µM

SMILES: O=C(C#Cc1ccccc1)N1CCCCC1
- TGI [1]: > 100 µM
- TGI [2]: > 100 µM
- TGI [3]: > 100 µM
- TGI [4]: > 100 µM
- TGI [59]: > 100 µM
- TGI [5]: > 100 µM
- TGI [6]: > 100 µM
- TGI [7]: > 100 µM
- TGI [8]: > 100 µM
- TGI [9]: > 100 µM
- TGI [10]: > 100 µM
- TGI [11]: > 100 µM
- TGI [13]: > 100 µM
- TGI [14]: > 100 µM
- TGI [15]: > 100 µM
- TGI [16]: > 100 µM
- TGI [17]: > 100 µM
- TGI [18]: > 100 µM
- TGI [19]: > 100 µM
- TGI [20]: > 100 µM
- TGI [21]: > 100 µM
- TGI [23]: > 100 µM
- TGI [24]: > 100 µM
- TGI [25]: > 100 µM
- TGI [26]: > 100 µM
- TGI [27]: > 100 µM
- TGI [28]: > 100 µM
- TGI [29]: > 100 µM
- TGI [30]: > 100 µM
- TGI [31]: > 100 µM
- TGI [32]: > 100 µM
- TGI [33]: > 100 µM
- TGI [34]: > 100 µM
- TGI [35]: > 100 µM
- TGI [36]: > 100 µM
- TGI [37]: > 100 µM
- TGI [38]: > 100 µM
- TGI [39]: > 100 µM
- TGI [40]: > 100 µM
- TGI [41]: > 100 µM
- TGI [42]: > 100 µM
- TGI [43]: > 100 µM
- TGI [44]: 67.5 µM
- TGI [45]: > 100 µM
- TGI [46]: > 100 µM
- TGI [47]: > 100 µM
- TGI [48]: > 100 µM
- TGI [49]: > 100 µM
- TGI [50]: > 100 µM
- TGI [51]: > 100 µM
- TGI [52]: > 100 µM
- TGI [53]: > 100 µM
- TGI [54]: > 100 µM
- TGI [55]: > 100 µM
- TGI [56]: > 100 µM
- TGI [58]: > 100 µM

SMILES: CCN1CCC(O)(/C=C/c2ccc(Cl)c(Cl)c2)C(C(=O)/C=C/c2ccc(Cl)c(Cl)c2)C1 (stereo not given)
- TGI [1]: 2.33 µM
- TGI [2]: 7.97 µM
- TGI [3]: 2.18 µM
- TGI [4]: 4.61 µM
- TGI [59]: 3.24 µM
- TGI [5]: 1.6 µM
- TGI [6]: 2.52 µM
- TGI [7]: 3.81 µM
- TGI [8]: 3.25 µM
- TGI [9]: 1.05 µM
- TGI [10]: 1.58 µM
- TGI [12]: 2.71 µM
- TGI [13]: 2.4 µM
- TGI [14]: 1.72 µM
- TGI [15]: 1.89 µM
- TGI [16]: 2.54 µM
- TGI [18]: 2.67 µM
- TGI [19]: 2.02 µM
- TGI [20]: > 100 µM
- TGI [21]: 0.905 µM
- TGI [22]: 2.3 µM
- TGI [23]: 2.48 µM
- TGI [24]: 1.74 µM
- TGI [25]: 2.42 µM
- TGI [26]: 3.66 µM
- TGI [27]: 1.87 µM
- TGI [28]: 3.55 µM
- TGI [29]: 2.71 µM
- TGI [30]: 2.06 µM
- TGI [31]: 1.88 µM
- TGI [32]: 1.4 µM
- TGI [33]: 2.89 µM
- TGI [34]: 8.51 µM
- TGI [35]: 2.06 µM
- TGI [36]: 3.71 µM
- TGI [37]: 4.52 µM
- TGI [38]: 1.76 µM
- TGI [39]: 2.5 µM
- TGI [40]: 2.22 µM
- TGI [41]: 2.02 µM
- TGI [42]: 2.21 µM
- TGI [43]: 1.82 µM
- TGI [44]: 1.73 µM
- TGI [45]: 2.01 µM
- TGI [46]: 1.71 µM
- TGI [47]: 2.91 µM
- TGI [48]: 2.43 µM
- TGI [49]: 2.7 µM
- TGI [50]: 3.21 µM
- TGI [51]: 3.79 µM
- TGI [52]: 2.36 µM
- TGI [53]: 1.91 µM
- TGI [54]: 2.81 µM
- TGI [55]: 1.74 µM
- TGI [56]: 1.13 µM
- TGI [57]: 2.27 µM
- TGI [58]: 2.37 µM

SMILES: COc1cccc2c1CCc1sc(CN3CCN(C)CC3)nc1-2
- TGI [1]: > 100 µM
- TGI [2]: > 100 µM
- TGI [3]: 80.1 µM
- TGI [4]: > 100 µM
- TGI [59]: > 100 µM
- TGI [5]: > 100 µM
- TGI [6]: > 100 µM
- TGI [7]: > 100 µM
- TGI [8]: > 100 µM
- TGI [9]: > 100 µM
- TGI [12]: > 100 µM
- TGI [13]: 65.7 µM
- TGI [14]: > 100 µM
- TGI [15]: > 100 µM
- TGI [16]: > 100 µM
- TGI [17]: 63.9 µM
- TGI [18]: > 100 µM
- TGI [20]: > 100 µM
- TGI [22]: > 100 µM
- TGI [23]: > 100 µM
- TGI [24]: > 100 µM
- TGI [25]: > 100 µM
- TGI [26]: > 100 µM
- TGI [27]: > 100 µM
- TGI [29]: > 100 µM
- TGI [30]: > 100 µM
- TGI [31]: > 100 µM
- TGI [32]: > 100 µM
- TGI [33]: > 100 µM
- TGI [34]: > 100 µM
- TGI [35]: > 100 µM
- TGI [36]: > 100 µM
- TGI [37]: > 100 µM
- TGI [38]: > 100 µM
- TGI [39]: > 100 µM
- TGI [40]: > 100 µM
- TGI [41]: > 100 µM
- TGI [42]: > 100 µM
- TGI [43]: 54.1 µM
- TGI [44]: > 100 µM
- TGI [45]: > 100 µM
- TGI [46]: > 100 µM
- TGI [47]: > 100 µM
- TGI [48]: > 100 µM
- TGI [49]: > 100 µM
- TGI [50]: > 100 µM
- TGI [51]: > 100 µM
- TGI [52]: > 100 µM
- TGI [53]: > 100 µM
- TGI [54]: > 100 µM
- TGI [55]: > 100 µM
- TGI [56]: 53.5 µM
- TGI [57]: > 100 µM
- TGI [58]: > 100 µM

Reference: PubChem BioAssay (NCI)
